Laboratory results: the supplement of paper PMC10307832

Compound: Cn1c(=O)n(-c2ccc(C(C)(C)C#N)cc2)c2c3cc(-c4cnc5ccccc5c4)ccc3ncc21 [Dactolisib] + O=C(CCCCCCC(=O)Nc1ccccc1)NO [Vorinostat] (partner 1 µM)
Assay: relative viability (nuclei count vs DMSO), 5 days (fraction); higher = more cells survive
Conditions: first compound 0.2 µM
Outline: (§1)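 Medians of duplicate plates are given as relative viability. That measure is the nuclei count in treated wells divided by the count in vehicle wells. Counts were taken on 4× images of lung cancer cell lines in 1536-well plates, 5 days after pin-tool dosing the day after seeding with one drug alone or a fixed anchor-drug dose plus five library-drug doses (not always all listed) in √10 steps.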

| Cell Line | relative viability |
| --- | --- |
| HCC-44 | 0.885 |
| NCI-H522 | 0.657 |
| SW 900 | 0.24 |
| NCI-H1395 | 0.467 |
| NCI-H1793 | 0.197 |
| NCI-H1944 | 0.223 |
| ABC-1 | 0.529 |
| NCI-H358 | 0.165 |

Compound: Cn1c(=O)n(-c2ccc(C(C)(C)C#N)cc2)c2c3cc(-c4cnc5ccccc5c4)ccc3ncc21 [Dactolisib] + Cc1nc(Nc2ncc(C(=O)Nc3c(C)cccc3Cl)s2)cc(N2CCN(CCO)CC2)n1 [Dasatinib] (partner 0.075 µM)
Assay: as above
Conditions: first compound 0.002 µM
Outline: as §1

| Cell Line | relative viability |
| --- | --- |
| NCI-H2342 | 0.298 |
| NCI-H1623 | 0.518 |
| NCI-H727 | 0.384 |
| NCI-H1650 | 0.306 |
| NCI-H1993 | 0.553 |
| SK-LU-1 | 0.148 |
| NCI-H838 | 0.261 |
| LCLC-103H | 0.529 |
| NCI-H520 | 0.182 |
| NCI-H2126 | 0.599 |
| EMC-BAC-2 | 0.337 |
| NCI-H2085 | 0.179 |
| HCC-366 | 0.598 |
| NCI-H1666 | 0.877 |
| NCI-H596 | 0.629 |
| LK-2 | 0.279 |
| NCI-H2087 | 0.782 |

| Cell Line | relative viability |
| --- | --- |
| SK-MES-1 | 0.433 |
| H3255 | 0.489 |
| COR-L23 | 0.634 |
| COR-L 105 | 0.294 |
| LOU-NH91 | 0.533 |
| ChaGo-K-1 | 0.584 |
| NCI-H2170 | 0.644 |
| NCI-H522 | 0.993 |
| SW 900 | 0.431 |
| NCI-H1395 | 0.405 |
| NCI-H1792 | 0.752 |
| NCI-H1793 | 0.388 |
| NCI-H1563 | 0.498 |
| NCI-H1944 | 0.22 |
| ABC-1 | 0.57 |
| NCI-H358 | 0.162 |

Same assay, conditions: first compound 0.006325 µM

| Cell Line | relative viability |
| --- | --- |
| NCI-H2342 | 0.294 |
| NCI-H1623 | 0.585 |
| NCI-H727 | 0.445 |
| NCI-H1650 | 0.3 |
| NCI-H1993 | 0.413 |
| SK-LU-1 | 0.172 |
| NCI-H838 | 0.259 |
| LCLC-103H | 0.422 |
| NCI-H520 | 0.177 |
| NCI-H2126 | 0.589 |
| EMC-BAC-2 | 0.325 |
| NCI-H2085 | 0.249 |
| HCC-366 | 0.565 |
| NCI-H1666 | 0.793 |
| NCI-H596 | 0.539 |
| LK-2 | 0.322 |
| NCI-H2087 | 0.771 |

| Cell Line | relative viability |
| --- | --- |
| SK-MES-1 | 0.375 |
| H3255 | 0.387 |
| COR-L23 | 0.471 |
| COR-L 105 | 0.293 |
| LOU-NH91 | 0.591 |
| ChaGo-K-1 | 0.56 |
| NCI-H2170 | 0.538 |
| NCI-H522 | 0.791 |
| SW 900 | 0.455 |
| NCI-H1395 | 0.405 |
| NCI-H1792 | 0.724 |
| NCI-H1793 | 0.312 |
| NCI-H1563 | 0.466 |
| NCI-H1944 | 0.2 |
| ABC-1 | 0.486 |
| NCI-H358 | 0.157 |

Same assay, conditions: first compound 0.02 µM

| Cell Line | relative viability |
| --- | --- |
| NCI-H2342 | 0.348 |
| NCI-H1623 | 0.528 |
| NCI-H727 | 0.461 |
| NCI-H1650 | 0.296 |
| NCI-H1993 | 0.498 |
| SK-LU-1 | 0.162 |
| NCI-H838 | 0.247 |
| LCLC-103H | 0.45 |
| NCI-H520 | 0.149 |
| NCI-H2126 | 0.504 |
| EMC-BAC-2 | 0.342 |
| NCI-H2085 | 0.229 |
| HCC-366 | 0.597 |
| NCI-H1666 | 0.791 |
| NCI-H596 | 0.528 |
| LK-2 | 0.31 |
| NCI-H2087 | 0.86 |

| Cell Line | relative viability |
| --- | --- |
| SK-MES-1 | 0.307 |
| H3255 | 0.357 |
| COR-L23 | 0.543 |
| COR-L 105 | 0.309 |
| LOU-NH91 | 0.504 |
| ChaGo-K-1 | 0.597 |
| NCI-H2170 | 0.652 |
| NCI-H522 | 0.822 |
| SW 900 | 0.694 |
| NCI-H1395 | 0.392 |
| NCI-H1792 | 0.724 |
| NCI-H1793 | 0.253 |
| NCI-H1563 | 0.47 |
| NCI-H1944 | 0.212 |
| ABC-1 | 0.416 |
| NCI-H358 | 0.191 |

Same assay, conditions: first compound 0.06325 µM

| Cell Line | relative viability |
| --- | --- |
| NCI-H2342 | 0.31 |
| NCI-H1623 | 0.412 |
| NCI-H727 | 0.3 |
| NCI-H1650 | 0.245 |
| NCI-H1993 | 0.505 |
| SK-LU-1 | 0.145 |
| NCI-H838 | 0.248 |
| LCLC-103H | 0.429 |
| NCI-H520 | 0.122 |
| NCI-H2126 | 0.385 |
| EMC-BAC-2 | 0.209 |
| NCI-H2085 | 0.169 |
| HCC-366 | 0.341 |
| NCI-H1666 | 0.677 |
| NCI-H596 | 0.384 |
| LK-2 | 0.182 |
| NCI-H2087 | 0.359 |

| Cell Line | relative viability |
| --- | --- |
| SK-MES-1 | 0.222 |
| H3255 | 0.397 |
| COR-L23 | 0.169 |
| COR-L 105 | 0.2 |
| LOU-NH91 | 0.438 |
| ChaGo-K-1 | 0.523 |
| NCI-H2170 | 0.486 |
| NCI-H522 | 0.689 |
| SW 900 | 0.265 |
| NCI-H1395 | 0.381 |
| NCI-H1792 | 0.338 |
| NCI-H1793 | 0.16 |
| NCI-H1563 | 0.474 |
| NCI-H1944 | 0.165 |
| ABC-1 | 0.392 |
| NCI-H358 | 0.0796 |

Same assay, conditions: first compound 0.2 µM

| Cell Line | relative viability |
| --- | --- |
| NCI-H2342 | 0.284 |
| NCI-H1623 | 0.379 |
| NCI-H727 | 0.257 |
| NCI-H1650 | 0.205 |
| NCI-H1993 | 0.52 |
| SK-LU-1 | 0.127 |
| NCI-H838 | 0.224 |
| LCLC-103H | 0.307 |
| NCI-H520 | 0.17 |
| NCI-H2126 | 0.279 |
| EMC-BAC-2 | 0.18 |
| NCI-H2085 | 0.209 |
| HCC-366 | 0.136 |
| NCI-H1666 | 0.588 |
| NCI-H596 | 0.319 |
| LK-2 | 0.144 |
